Results: US9914709B2, “Compositions and methods of treating HIV-1 infections using same” (YALE UNIVERSITY, priority 2013, dated 2018)
Like-named read-outs stand apart in the source and are kept apart here.

Tests used:
MT-2 human T-cells = assay: Cytotoxicity, inhibition of MT-2 cell growth; conditions: read-out: cytotoxicity (CC50); Table 4; human MT-2 cells
wild-type HIV-1 = conditions: MT-4 cells; Janssen 2005 / Ludovici 2001; read-out: previously reported EC50, wild-type; cited from earlier work
HIV-1 Y181C variant [1] = assay: microbe, parasite or virus in culture; type: cell-based
HIV-1 Y181C variant [2] = conditions: MT-4 cells; Janssen 2005 / Ludovici 2001; read-out: previously reported EC50, Y181C; cited from earlier work
[3] = tested on: HIV-1 K103N/Y181C variant; assay: microbe, parasite or virus in culture; type: cell-based
[4] = tested on: HIV-1 K103N/Y181C variant; conditions: MT-4 cells; Janssen 2005 / Ludovici 2001; read-out: previously reported EC50, K103N/Y181C; cited from earlier work
[5] = Cytotoxicity, inhibition of MT-2 cell growth; conditions: human
[6] = Aqueous solubility, literature reports; type: physicochemical; conditions: translated from 20 ng/mL at pH 7.0

| Compound | CC50 (MT-2 human T-cells) [nM] | EC50 (wild-type HIV-1) [nM] | EC50 (HIV-1 Y181C variant [1]; Human immunodeficiency virus 1, MT2, read-out: EC50, Y181C variant) [nM] | EC50 (HIV-1 Y181C variant [1]; Human immunodeficiency virus 1, MT2, read-out: EC50 Y181C) [nM] | EC50 (HIV-1 Y181C variant [2]) [nM] | EC50 ([3]; Human immunodeficiency virus 1, MT2, read-out: EC50, K103N/Y181C variant) [nM] | EC50 ([3]; Human immunodeficiency virus 1, MT2, read-out: EC50 K103N/Y181C) [nM] | EC50 [4] [nM] | CC50 [5] [nM] | S [6] [nM] |
| --- | --- | --- | --- | --- | --- | --- | --- | --- | --- | --- |
| Cc1cc(C)c(Nc2ccnc(Nc3ccc(C#N)cc3)n2)c(C)c1 [Compound 10a, dapivirine, reference compound] | 2000 | 1.2 | 39 | 39 | 7 | 39 | 39 | 54 |  |  |
| Cc1ccnc2c1NC(=O)c1cccnc1N2C1CC1 [nevirapine] | > 100000 |  |  |  |  |  |  |  | > 100000 |  |
| Cc1cc(/C=C/C#N)cc(C)c1Nc1ccnc(Nc2ccc(C#N)cc2)n1 [rilpivirine, reference compound] |  |  |  |  |  |  |  |  |  | 50 |
